ChEMBL document CHEMBL1158472, “Carbonic anhydrase-encoded dynamic constitutional libraries: toward the discovery of isozyme-specific inhibitors” (J Med Chem, 2009)

What was measured:
Carbonic anhydrase 1 = Carbonic anhydrase 1 (Homo sapiens, UniProt P00915); test: Inhibition of human erythrocytes carbonic anhydrase 1 by CO2 hydration assay
Carbonic anhydrase 2 [1] = target: T1, Carbonic anhydrase 2 (Homo sapiens, UniProt P00918); test: Inhibition of human erythrocytes carbonic anhydrase 2 by CO2 hydration assay
Carbonic anhydrase 2 [2] = target: T1, Carbonic anhydrase 2; test: Binding affinity to human carbonic anhydrase 2

Carbonic anhydrase 1, sequence (P00915 whole entry): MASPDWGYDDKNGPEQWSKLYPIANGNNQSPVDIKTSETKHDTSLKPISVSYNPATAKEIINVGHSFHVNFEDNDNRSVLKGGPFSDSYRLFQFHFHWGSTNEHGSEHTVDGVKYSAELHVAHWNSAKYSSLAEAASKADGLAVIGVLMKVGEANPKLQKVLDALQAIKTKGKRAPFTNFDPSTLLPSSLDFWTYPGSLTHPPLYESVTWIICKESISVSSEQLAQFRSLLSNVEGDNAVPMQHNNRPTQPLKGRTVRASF

Ki (Carbonic anhydrase 1) [µM] | Ki (Carbonic anhydrase 2 [1]) [µM] | Ki (Carbonic anhydrase 2 [2]) [µM] | Compound
> 100 | > 100 |  | Fc1ccccc1/C=N/Cc1ccccc1
> 100 | > 100 |  | O=C(O)c1cccc(/C=N/Cc2ccccc2)c1
 | > 100 |  | O=S(=O)(O)c1ccc(/C=N/Cc2ccccc2)o1
> 100 | > 100 |  | Fc1ccccc1CNCc1ccccc1
> 100 | > 100 |  | O=C(O)c1cccc(CNCc2ccccc2)c1
 |  | 460 | Cc1ccc(S(=O)(=O)O)cc1
